pIC50: −log10 of the molar value.
Test system: 168753-222-R-J1-PDC complex spheroid viability
Test: Anticancer human tumor 168753-222-R-J1-PDC patient-derived bladder carcinoma cell line growth inhibition [CLK]
Conditions: for pIC50: curve of first compound; for viability, T/C: stronger effect = lower value
Outline: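 Multi-cell-type spheroids combined patient-derived tumor cells with HUVEC endothelial cells and human mesenchymal stem cells. Paired agents were dosed in half-log steps down from about clinical Cmax, or from 10 microM where Cmax was unknown.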

[1] = second compound 0.0316 µM, first compound 0.0316 µM
[2] = second compound 0.0316 µM, first compound 0.1 µM
[3] = second compound 0.0316 µM, first compound 0.316 µM
[4] = second compound 0.0316 µM, first compound 1 µM
[5] = second compound 0.0316 µM, first compound 3.16 µM
[6] = second compound 0.0316 µM, first compound 10 µM
[7] = second compound 0.1 µM, first compound 0.0316 µM
[8] = second compound 0.1 µM, first compound 0.1 µM
[9] = second compound 0.1 µM, first compound 0.316 µM
[10] = second compound 0.1 µM, first compound 1 µM
[11] = second compound 0.1 µM, first compound 3.16 µM
[12] = second compound 0.1 µM, first compound 10 µM
[13] = second compound 0.316 µM, first compound 0.0316 µM
[14] = second compound 0.316 µM, first compound 0.1 µM
[15] = second compound 0.316 µM, first compound 0.316 µM
[16] = second compound 0.316 µM, first compound 1 µM
[17] = second compound 0.316 µM, first compound 3.16 µM
[18] = second compound 0.316 µM, first compound 10 µM
[19] = second compound 1 µM, first compound 0.0316 µM
[20] = second compound 1 µM, first compound 0.1 µM
[21] = second compound 1 µM, first compound 0.316 µM
[22] = second compound 1 µM, first compound 1 µM
[23] = second compound 1 µM, first compound 3.16 µM
[24] = second compound 1 µM, first compound 10 µM
[25] = second compound 3.16 µM, first compound 0.0316 µM
[26] = second compound 3.16 µM, first compound 0.1 µM
[27] = second compound 3.16 µM, first compound 0.316 µM
[28] = second compound 3.16 µM, first compound 1 µM
[29] = second compound 3.16 µM, first compound 3.16 µM
[30] = second compound 3.16 µM, first compound 10 µM
[31] = second compound 10 µM, first compound 0.0316 µM
[32] = second compound 10 µM, first compound 0.1 µM
[33] = second compound 10 µM, first compound 0.316 µM
[34] = second compound 10 µM, first compound 1 µM
[35] = second compound 10 µM, first compound 3.16 µM
[36] = second compound 10 µM, first compound 10 µM
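Also: viability measured after seven days of drug exposure.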
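For viability, T/C in this document: luminescence signal used as surrogate for viable cell amount; 100% = DMSO vehicle control wells.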

`CC(C)CC(NC(=O)C(Cc1ccccc1)NC(=O)c1cnccn1)B(O)O` (stereo unspecified) + CN1CCN(c2cc(C(=O)Nc3cc4cc(-c5cnn(C)c5)ccc4cn3)ccn2)CC1 showed a pIC50 (second compound 0.0316 µM) of 8.69, a pIC50 (second compound 0.1 µM) of 8.90 and a pIC50 (second compound 0.316 µM) greater than 9.02. It also gave a pIC50 (second compound 1 µM) greater than 9.02, a pIC50 (second compound 3.16 µM) greater than 9.02 and a pIC50 (second compound 10 µM) greater than 9.02. It also gave a viability, T/C (second compound 0.0316 µM, first compound 0.000949 µM) of 110%, a viability, T/C (second compound 0.0316 µM, first compound 0.003 µM) of 18.9% and a viability, T/C (second compound 0.0316 µM, first compound 0.00949 µM) of 0.44%. It also gave a viability, T/C (second compound 0.0316 µM, first compound 0.03 µM) of 0.32%, a viability, T/C (second compound 0.0316 µM, first compound 0.0949 µM) of 0.25% and a viability, T/C (second compound 0.0316 µM, first compound 0.3 µM) of 1.03%. It also gave a viability, T/C (second compound 0.1 µM, first compound 0.000949 µM) of 59.4%, a viability, T/C (second compound 0.1 µM, first compound 0.003 µM) of 20.9% and a viability, T/C (second compound 0.1 µM, first compound 0.00949 µM) of 0.36%. It also gave a viability, T/C (second compound 0.1 µM, first compound 0.03 µM) of 0.27%, a viability, T/C (second compound 0.1 µM, first compound 0.0949 µM) of 0.22% and a viability, T/C (second compound 0.1 µM, first compound 0.3 µM) of 0.23%. The viability, T/C (second compound 0.316 µM, first compound 0.000949 µM) was 11.4%, the viability, T/C (second compound 0.316 µM, first compound 0.003 µM) was 11.6% and the viability, T/C (second compound 0.316 µM, first compound 0.00949 µM) was 0.29%. For the same compound, the viability, T/C (second compound 0.316 µM, first compound 0.03 µM) was 0.17%, the viability, T/C (second compound 0.316 µM, first compound 0.0949 µM) was 0.2% and the viability, T/C (second compound 0.316 µM, first compound 0.3 µM) was 0.16%. It also gave a viability, T/C (second compound 1 µM, first compound 0.000949 µM) of 0.26%, a viability, T/C (second compound 1 µM, first compound 0.003 µM) of 0.22% and a viability, T/C (second compound 1 µM, first compound 0.00949 µM) of 0.57%. It also gave a viability, T/C (second compound 1 µM, first compound 0.03 µM) of 0.12%, a viability, T/C (second compound 1 µM, first compound 0.0949 µM) of 0.15% and a viability, T/C (second compound 1 µM, first compound 0.3 µM) of 0.15%. It also gave a viability, T/C (second compound 3.16 µM, first compound 0.000949 µM) of 1.04%, a viability, T/C (second compound 3.16 µM, first compound 0.003 µM) of 0.22% and a viability, T/C (second compound 3.16 µM, first compound 0.00949 µM) of 0.34%. The viability, T/C (second compound 3.16 µM, first compound 0.03 µM) was 0.09%, the viability, T/C (second compound 3.16 µM, first compound 0.0949 µM) was 1.55% and the viability, T/C (second compound 3.16 µM, first compound 0.3 µM) was 0.25%. The viability, T/C (second compound 10 µM, first compound 0.000949 µM) was 0.63%, the viability, T/C (second compound 10 µM, first compound 0.003 µM) was 0.26% and the viability, T/C (second compound 10 µM, first compound 0.00949 µM) was 0.23%. It also gave a viability, T/C (second compound 10 µM, first compound 0.03 µM) of 0.18%, a viability, T/C (second compound 10 µM, first compound 0.0949 µM) of 1.16% and a viability, T/C (second compound 10 µM, first compound 0.3 µM) of 1.04%.
`CC1COCCN1c1cc(C2(S(C)(=N)=O)CC2)nc(-c2ccnc3[nH]ccc23)n1` (stereo unspecified) + CN1CCN(c2cc(C(=O)Nc3cc4cc(-c5cnn(C)c5)ccc4cn3)ccn2)CC1 showed a pIC50 (second compound 0.0316 µM) of 5.76, a pIC50 (second compound 0.1 µM) of 6.94 and a pIC50 (second compound 0.316 µM) greater than 7.50. The pIC50 (second compound 1 µM) was greater than 7.50, the pIC50 (second compound 3.16 µM) was greater than 7.50 and the pIC50 (second compound 10 µM) was greater than 7.50. The viability, T/C [1] was 47.2%, the viability, T/C [2] was 74.3% and the viability, T/C [3] was 67.3%. The viability, T/C [4] was 89.2%, the viability, T/C [5] was 29.4% and the viability, T/C [6] was 26.9%. It also gave a viability, T/C [7] of 61.5%, a viability, T/C [8] of 53.8% and a viability, T/C [9] of 22%. It also gave a viability, T/C [10] of 30.5%, a viability, T/C [11] of 15.8% and a viability, T/C [12] of 15.1%. The viability, T/C [13] was 10.6%, the viability, T/C [14] was 9.28% and the viability, T/C [15] was 9%. It also gave a viability, T/C [16] of 7.71%, a viability, T/C [17] of 7.38% and a viability, T/C [18] of 4.64%. It also gave a viability, T/C [19] of 0.24%, a viability, T/C [20] of 0.3% and a viability, T/C [21] of 0.2%. The viability, T/C [22] was 0.19%, the viability, T/C [23] was 0.18% and the viability, T/C [24] was 0.82%. The viability, T/C [25] was 0.19%, the viability, T/C [26] was 1.51% and the viability, T/C [27] was 1.3%. For the same compound, the viability, T/C [28] was 0.18%, the viability, T/C [29] was 0.26% and the viability, T/C [30] was 1.69%. The viability, T/C [31] was 0.23%, the viability, T/C [32] was 0.28% and the viability, T/C [33] was 1.49%. For the same compound, the viability, T/C [34] was 0.34%, the viability, T/C [35] was 0.56% and the viability, T/C [36] was 1.29%.
In the case of `O=C(c1cc(Cc2n[nH]c(=O)c3ccccc23)ccc1F)N1CCN(C(=O)C2CC2)CC1` + CN1CCN(c2cc(C(=O)Nc3cc4cc(-c5cnn(C)c5)ccc4cn3)ccn2)CC1, the pIC50 (second compound 0.0316 µM) was less than 5.00, the pIC50 (second compound 0.1 µM) was 6.37 and the pIC50 (second compound 0.316 µM) was greater than 7.50. For the same compound, the pIC50 (second compound 1 µM) was greater than 7.50, the pIC50 (second compound 3.16 µM) was greater than 7.50 and the pIC50 (second compound 10 µM) was greater than 7.50. The viability, T/C [1] was 73.3%, the viability, T/C [2] was 75.6% and the viability, T/C [3] was 72.5%. It also gave a viability, T/C [4] of 88.2%, a viability, T/C [5] of 73.6% and a viability, T/C [6] of 77.8%. For the same compound, the viability, T/C [7] was 45.6%, the viability, T/C [8] was 67.2% and the viability, T/C [9] was 52.5%. The viability, T/C [10] was 40.3%, the viability, T/C [11] was 31.5% and the viability, T/C [12] was 40.1%. For the same compound, the viability, T/C [13] was 10.2%, the viability, T/C [14] was 8.85% and the viability, T/C [15] was 8.61%. For the same compound, the viability, T/C [16] was 7.84%, the viability, T/C [17] was 9.11% and the viability, T/C [18] was 10.2%. For the same compound, the viability, T/C [19] was 0.19%, the viability, T/C [20] was 0.34% and the viability, T/C [21] was 0.16%. The viability, T/C [22] was 0.63%, the viability, T/C [23] was 0.66% and the viability, T/C [24] was 0.35%. For the same compound, the viability, T/C [25] was 0.24%, the viability, T/C [26] was 0.12% and the viability, T/C [27] was 0.18%. The viability, T/C [28] was 0.08%, the viability, T/C [29] was 0.96% and the viability, T/C [30] was 0.39%. It also gave a viability, T/C [31] of 0.6%, a viability, T/C [32] of 0.32% and a viability, T/C [33] of 0.35%. For the same compound, the viability, T/C [34] was 0.18%, the viability, T/C [35] was 0.41% and the viability, T/C [36] was 1.31%.
